The record followed here is patent US10287295B2, “TGF-β inhibitors” (Rigel Pharmaceuticals, Inc., priority 2015, dated 2019).

As usually defined, the IC50 is the point on the concentration scale where inhibition reaches its midpoint. A higher IC50 goes with weaker potency in that assay.

The test system of assay [1] is TGF-β signaling (TGF-β pSMAD, MPC-11). Put plainly: AlphaScreen SureFire SMAD3 (p-Ser423/425) assay, inhibition of TGF-β signaling. The settings on record: Mus musculus, MPC-11, inhibition of TGF-β signaling, p-SMAD3 readout. Format: cell-based. (Alpha assays give light when donor and acceptor beads are brought close together.)
The subject of assay [2] is GDF8 signaling (GDF pSMAD, MPC11). Put plainly: AlphaScreen SureFire SMAD3 (p-Ser423/425) assay, inhibition of GDF8 signaling. Format: cell-based. The settings on record: Mus musculus, MPC-11, inhibition of GDF8 signaling, p-SMAD3 readout.

With `Cn1cnc2ccc(-c3[nH]cnc3-c3ccc(F)c(F)c3)cc21` [Compound 33, 6-(4-(3,4-Difluorophenyl)-1H-imidazol-5-yl)-1-methyl-1H-benzo[d]imidazole], the IC50 is 70 nM in assay [1] and 60 nM in assay [2].
With `Fc1ccc(-c2nc[nH]c2-c2ccc3ncsc3c2)cc1F` [Compound 34, 6-(4-(3,4-Difluorophenyl)-1H-imidazol-5-yl)benzo[d]thiazole], the IC50 was determined as 140 nM in assay [1] and 70 nM in assay [2].
As for `Fc1ccc(-c2nc[nH]c2-c2ccc3nccn3c2)cc1F` [Compound 35, 6-(4-(3,4-Difluorophenyl)-1H-imidazol-5-yl)imidazo[1,2-a]pyridine], the values for the IC50 in assay [1] and in assay [2] were 640 nM and 300 nM, respectively.
The corresponding values for `Fc1ccc(-c2nc[nH]c2-c2ccc3ncccc3c2)cc1F` [Compound 36, 6-(4-(3,4-Difluorophenyl)-1H-imidazol-5-yl)quinoline] are 1480 nM and 500 nM.
With `Cc1cc(-c2ncn(C)c2-c2ccc3ncccc3c2)ccc1F` [Compound 37, 6-(4-(4-Fluoro-3-methylphenyl)-1-methyl-1H-imidazol-5-yl)quinoline], the IC50 stood at 920 nM in assay [1] and 260 nM in assay [2].
Consider `Fc1ccc(-c2nc[nH]c2-c2ccc3ncccc3c2)cc1` [Compound 38, 6-(4-(4-Fluorophenyl)-1H-imidazol-5-yl)quinoline], for which the IC50 in assay [1] is 2550 nM; in assay [2] it was 930 nM.
Take `Clc1cccc(-c2nc[nH]c2-c2ccc3ncccc3c2)c1` [Compound 39, 6-(4-(3-Chlorophenyl)-1H-imidazol-5-yl)quinoline]: the IC50 in assay [1] worked out at 390 nM; in assay [2] it was 190 nM.
Turning to `Fc1cccc(-c2nc[nH]c2-c2ccc3ncccc3c2)c1` [Compound 40, 6-(4-(3-Fluorophenyl)-1H-imidazol-5-yl)quinoline], the IC50 in assay [1] turned out to be 1220 nM; in assay [2], 460 nM.
Regarding `Cc1cccc(-c2ncn(C)c2-c2ccc3[nH]ncc3c2)c1` [Compound 41, 5-(1-Methyl-4-(m-tolyl)-1H-imidazol-5-yl)-1H-indazole], the IC50 in assay [1] came out at 60 nM; in assay [2], 20 nM.
As to `Cc1cccc(-c2ncn(C)c2-c2ccc3cn[nH]c3c2)c1` [Compound 42, 6-(1-Methyl-4-(m-tolyl)-1H-imidazol-5-yl)-1H-indazole], the IC50 in assay [1] was 150 nM; in assay [2] it was 30 nM.
The corresponding values for `Cc1cccc(-c2ncn(C)c2-c2ccc3ncn(C)c3c2)c1` [Compound 43, 1-Methyl-6-(1-methyl-4-(m-tolyl)-1H-imidazol-5-yl)-1H-benzo[d]imidazole] are 530 nM and 190 nM.
Consider `Cc1cccc(-c2ncn(C)c2-c2ccc3ncsc3c2)c1` [Compound 44, 6-(1-Methyl-4-(m-tolyl)-1H-imidazol-5-yl)benzo[d]thiazole], for which the IC50 came out at 720 nM in assay [1] and 180 nM in assay [2].
`Cc1cccc(-c2ncn(C)c2-c2ccc3nccn3c2)c1` [Compound 45, 6-(1-Methyl-4-(m-tolyl)-1H-imidazol-5-yl)imidazo[1,2-a]pyridine]: the IC50 in assay [1] is 1780 nM; in assay [2], 440 nM.
The corresponding values for `Cc1cccc(-c2ncn(C)c2-c2ccc3ncccc3c2)c1` [Compound 46, 6-(1-Methyl-4-(m-tolyl)-1H-imidazol-5-yl)quinoline] are 1680 nM and 260 nM.
The corresponding values for `Cc1cccc(-c2ncn(C)c2-c2ccc3nccnc3c2)c1` [Compound 47, 6-(1-Methyl-4-(m-tolyl)-1H-imidazol-5-yl)quinoxaline] are 660 nM and 180 nM.
The corresponding values for `Cn1cnc(-c2ccc(F)cc2)c1-c1ccc2[nH]ncc2c1` [Compound 48, −(4-(4-Fluorophenyl)-1-methyl-1H-imidazol-5-yl)-1H-indazole] are 250 nM and 60 nM.
`Cn1cnc(-c2ccc(F)cc2)c1-c1ccc2cn[nH]c2c1` [Compound 49, 6-(4-(4-Fluorophenyl)-1-methyl-1H-imidazol-5-yl)-1H-indazole]: the IC50 was 1210 nM in assay [1] and 570 nM in assay [2].
Take `Cn1cnc(-c2ccc(F)cc2)c1-c1ccc2ncn(C)c2c1` [Compound 50, 6-(4-(4-Fluorophenyl)-1-methyl-1H-imidazol-5-yl)-1-methyl-1H-benzo[d]imidazole]: the IC50 amounted to 1870 nM in assay [1] and 1020 nM in assay [2].
As for `Cn1cnc(-c2ccc(F)cc2)c1-c1ccc2ncsc2c1` [Compound 51, 6-(4-(4-Fluorophenyl)-1-methyl-1H-imidazol-5-yl)benzo[d]thiazole], the IC50 in assay [1] turned out to be 2710 nM; in assay [2], 780 nM.
For the molecule `Cc1cc(-c2nc(C)n(C)c2-c2ccc3[nH]ncc3c2)ccc1F` [Compound 52, 5-(4-(4-Fluoro-3-methylphenyl)-1,2-dimethyl-1H-imidazol-5-yl)-1H-indazole], the IC50 in assay [1] turned out to be 910 nM; in assay [2], 210 nM.
As for `Cc1cc(-c2nc(C)n(C)c2-c2ccc3cn[nH]c3c2)ccc1F` [Compound 53, 6-(4-(4-Fluoro-3-methylphenyl)-1,2-dimethyl-1H-imidazol-5-yl)-1H-indazole], the results for the IC50 in assay [1] and in assay [2] were 3340 nM and 780 nM, respectively.
In the same order, the values of `Cc1cc(-c2nc(C)n(C)c2-c2ccc3ncn(C)c3c2)ccc1F` [Compound 54, 6-(4-(4-Fluoro-3-methylphenyl)-1,2-dimethyl-1H-imidazol-5-yl)-1-methyl-1H-benzo[d]imidazole] are 3100 nM and 410 nM.
As for `Cc1cc(-c2nc(C)n(C)c2-c2ccc3ncsc3c2)ccc1F` [Compound 55, 6-(4-(4-Fluoro-3-methylphenyl)-1,2-dimethyl-1H-imidazol-5-yl)benzo[d]thiazole], the IC50 in assay [1] came out at 7760 nM; in assay [2] it was 840 nM.
In the case of `Cc1cccc(-c2nc(C)n(C)c2-c2ccc3[nH]ncc3c2)c1` [Compound 56, 5-(1,2-Dimethyl-4-(m-tolyl)-1H-imidazol-5-yl)-1H-indazole], the IC50 was 5300 nM in assay [1] and 730 nM in assay [2].
The corresponding values for `Cc1cccc(-c2nc(C)n(C)c2-c2ccc3cn[nH]c3c2)c1` [Compound 57, 6-(1,2-Dimethyl-4-(m-tolyl)-1H-imidazol-5-yl)-1H-indazole] are 9210 nM and 710 nM.
In the same order, the values of `Cc1cccc(-c2nc(C)n(C)c2-c2ccc3ncn(C)c3c2)c1` [Compound 58, 6-(1,2-Dimethyl-4-(m-tolyl)-1H-imidazol-5-yl)-1-methyl-1H-benzo[d]imidazole] are 9640 nM and 990 nM.
Take `Cc1cccc(-c2nc(C)n(C)c2-c2ccc3ncsc3c2)c1` [Compound 59, 6-(1,2-Dimethyl-4-(m-tolyl)-1H-imidazol-5-yl)benzo[d]thiazole]: the IC50 came to 6750 nM in assay [1] and 690 nM in assay [2].
In the same order, the values of `Cn1cnc(-c2cccc(Cl)c2)c1-c1ccc2[nH]ncc2c1` [Compound 60, 5-(4-(3-Chlorophenyl)-1-methyl-1H-imidazol-5-yl)-1H-indazole] are 60 nM and 20 nM.
In the case of `Cn1cnc(-c2cccc(Cl)c2)c1-c1ccc2cn[nH]c2c1` [Compound 61, 6-(4-(3-Chlorophenyl)-1-methyl-1H-imidazol-5-yl)-1H-indazole], the IC50 amounted to 150 nM in assay [1] and 30 nM in assay [2].
In the case of `Cn1cnc(-c2cccc(Cl)c2)c1-c1ccc2ncn(C)c2c1` [Compound 62, 6-(4-(3-Chlorophenyl)-1-methyl-1H-imidazol-5-yl)-1-methyl-1H-benzo[d]imidazole], the IC50 came to 220 nM in assay [1] and 50 nM in assay [2].
Take `Cn1cnc(-c2cccc(Cl)c2)c1-c1ccc2ncsc2c1` [Compound 63, 6-(4-(3-Chlorophenyl)-1-methyl-1H-imidazol-5-yl)benzo[d]thiazole]: the figures for the IC50 in assay [1] and in assay [2] were 230 nM and 60 nM, respectively.
`Cn1cnc(-c2ccc(F)c(F)c2)c1-c1ccc2[nH]ncc2c1` [Compound 64, 5-(4-(3,4-Difluorophenyl)-1-methyl-1H-imidazol-5-yl)-1H-indazole]: the results for the IC50 in assay [1] and in assay [2] were 270 nM and 90 nM, respectively.
Take `Cn1cnc(-c2ccc(F)c(F)c2)c1-c1ccc2ncn(C)c2c1` [Compound 66, 6-(4-(3,4-Difluorophenyl)-1-methyl-1H-imidazol-5-yl)-1-methyl-1H-benzo[d]imidazole]: the IC50 in assay [1] stood at 980 nM; in assay [2], 520 nM.
`Cn1cnc(-c2ccc(F)c(F)c2)c1-c1ccc2ncsc2c1` [Compound 67, 6-(4-(3,4-Difluorophenyl)-1-methyl-1H-imidazol-5-yl)benzo[d]thiazole]: the IC50 in assay [1] is 1680 nM; in assay [2], 580 nM.
The corresponding values for `Cn1cnc(-c2ccc(F)c(F)c2)c1-c1ccc2nccnc2c1` [Compound 68, 6-(4-(3,4-Difluorophenyl)-1-methyl-1H-imidazol-5-yl)quinoxaline] are 2870 nM and 1050 nM.
The corresponding values for `COc1ccc(-c2ncn(C)c2-c2ccc3[nH]ncc3c2)cc1` [Compound 69, 5-(4-(4-Methoxyphenyl)-1-methyl-1H-imidazol-5-yl)-1H-indazole] are 1770 nM and 140 nM.
The corresponding values for `COc1ccc(-c2ncn(C)c2-c2ccc3cn[nH]c3c2)cc1` [Compound 70, 6-(4-(4-Methoxyphenyl)-1-methyl-1H-imidazol-5-yl)-1H-indazole] are 5220 nM and 700 nM.
On to `Cc1nc(-c2ccc(F)c(C)c2)c(-c2ccc3[nH]ncc3c2)[nH]1` [Compound 71, 5-(4-(4-Fluoro-3-methylphenyl)-2-methyl-1H-imidazol-5-yl)-1H-indazole], for which the results for the IC50 in assay [1] and in assay [2] were 800 nM and 90 nM, respectively.
In the same order, the values of `Cc1nc(-c2ccc(F)c(C)c2)c(-c2ccc3cn[nH]c3c2)[nH]1` [Compound 72, 6-(4-(4-Fluoro-3-methylphenyl)-2-methyl-1H-imidazol-5-yl)-1H-indazole] are 970 nM and 100 nM.
